From the supplement of paper PMC10307832

What was measured:
Test in all cases: relative viability (nuclei count vs DMSO), 5 days (fraction); higher = more cells survive
PC-14 = system: PC-14
In short: (§1)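 Nuclei were stained with Hoechst during a one-step fixation (final 0.05% Triton X-100, 1% formaldehyde, 1 ug/ml Hoechst) carried out 5 days after dosing, then counted on 4× images. The cells, lung cancer lines in 1536-well plates, had been dosed by pin tool the day after seeding with one drug alone or a fixed anchor-drug dose plus five library-drug doses (not always all listed) in √10 steps. Relative viability is the nuclei count in treated wells divided by that in vehicle wells, and each value is the median of duplicate plates.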

NCI-H2405 = system: NCI-H2405
In short: as §1

NCI-H322M = system: NCI-H322M
In short: as §1

NCI-H596 = system: NCI-H596
In short: as §1

NCI-H520 = system: NCI-H520
In short: as §1

EPLC-272H = system: EPLC-272H
In short: as §1

NCI-H3122 = system: NCI-H3122
In short: as §1

ABC-1 = system: ABC-1
In short: as §1

HCC-827 = system: HCC-827
In short: as §1

NCI-H358 = system: NCI-H358
In short: as §1

NCI-H1792 = system: NCI-H1792
In short: as §1

NCI-H647 = system: NCI-H647
In short: as §1

HOP-62 = system: HOP-62
In short: as §1

NCI-H1355 = system: NCI-H1355
In short: as §1

NCI-H1666 = system: NCI-H1666
In short: as §1

LU99A = system: LU99A
In short: as §1

NCI-H838 = system: NCI-H838
In short: as §1

UMC-11 = system: UMC-11
In short: as §1

NCI-H23 = system: NCI-H23
In short: as §1

NCI-H2170 = system: NCI-H2170
In short: as §1

NCI-H727 = system: NCI-H727
In short: as §1

NCI-H1975 = system: NCI-H1975
In short: as §1

BEN = system: BEN
In short: as §1

For `Cc1cnc(-c2cnc(NCCNc3ccc(C#N)cn3)nc2-c2ccc(Cl)cc2Cl)[nH]1` + C[C@@H](Oc1cc(-c2cnn(C3CCNCC3)c2)cnc1N)c1c(Cl)ccc(F)c1Cl [Crizotinib] (partner 1 µM), the relative viability (PC-14; first compound 0.08 µM) was 0.911, the relative viability (PC-14; first compound 0.253 µM) was 0.811 and the relative viability (PC-14; first compound 0.8 µM) was 0.896. The relative viability (PC-14; first compound 2.53 µM) was 0.807, the relative viability (NCI-H2405; first compound 0.08 µM) was 0.883 and the relative viability (NCI-H2405; first compound 0.253 µM) was 0.774. For the same molecule, the relative viability (NCI-H2405; first compound 0.8 µM) was 0.797, the relative viability (NCI-H2405; first compound 2.53 µM) was 0.809 and the relative viability (NCI-H322M; first compound 0.08 µM) was 0.925. The relative viability (NCI-H322M; first compound 0.253 µM) was 0.81, the relative viability (NCI-H322M; first compound 0.8 µM) was 0.821 and the relative viability (NCI-H322M; first compound 2.53 µM) was 0.858. For the same molecule, the relative viability (NCI-H596; first compound 0.08 µM) was 0.921, the relative viability (NCI-H596; first compound 0.253 µM) was 0.906 and the relative viability (NCI-H596; first compound 0.8 µM) was 0.968. For the same molecule, the relative viability (NCI-H596; first compound 2.53 µM) was 0.927, the relative viability (NCI-H520; first compound 0.08 µM) was 0.901 and the relative viability (NCI-H520; first compound 0.253 µM) was 0.75. The relative viability (NCI-H520; first compound 0.8 µM) was 0.765, the relative viability (NCI-H520; first compound 2.53 µM) was 0.755 and the relative viability (EPLC-272H; first compound 0.08 µM) was 0.928. The relative viability (EPLC-272H; first compound 0.253 µM) was 0.872, the relative viability (EPLC-272H; first compound 0.8 µM) was 0.832 and the relative viability (EPLC-272H; first compound 2.53 µM) was 0.883. It also gave a relative viability (NCI-H3122; first compound 0.08 µM) of 0.285, a relative viability (NCI-H3122; first compound 0.253 µM) of 0.319 and a relative viability (NCI-H3122; first compound 0.8 µM) of 0.253. For the same molecule, the relative viability (NCI-H3122; first compound 2.53 µM) was 0.304, the relative viability (ABC-1; first compound 0.08 µM) was 1.03 and the relative viability (ABC-1; first compound 0.253 µM) was 0.831. The relative viability (ABC-1; first compound 0.8 µM) was 1.23, the relative viability (ABC-1; first compound 2.53 µM) was 1.05 and the relative viability (HCC-827; first compound 0.08 µM) was 0.929. It also gave a relative viability (HCC-827; first compound 0.8 µM) of 0.882, a relative viability (HCC-827; first compound 2.53 µM) of 0.923 and a relative viability (NCI-H358; first compound 0.08 µM) of 0.609. For the same molecule, the relative viability (NCI-H358; first compound 0.253 µM) was 0.548, the relative viability (NCI-H358; first compound 0.8 µM) was 0.569 and the relative viability (NCI-H358; first compound 2.53 µM) was 0.46. It also gave a relative viability (NCI-H1792; first compound 0.08 µM) of 0.975, a relative viability (NCI-H1792; first compound 0.253 µM) of 0.803 and a relative viability (NCI-H1792; first compound 0.8 µM) of 0.947. For the same molecule, the relative viability (NCI-H1792; first compound 2.53 µM) was 0.936, the relative viability (NCI-H647; first compound 0.08 µM) was 1.06 and the relative viability (NCI-H647; first compound 0.253 µM) was 0.783. The relative viability (NCI-H647; first compound 0.8 µM) was 1.07, the relative viability (NCI-H647; first compound 2.53 µM) was 0.927 and the relative viability (HOP-62; first compound 0.08 µM) was 0.892. It also gave a relative viability (HOP-62; first compound 0.253 µM) of 0.816, a relative viability (HOP-62; first compound 0.8 µM) of 0.997 and a relative viability (HOP-62; first compound 2.53 µM) of 0.853. The relative viability (NCI-H1355; first compound 0.08 µM) was 1.1, the relative viability (NCI-H1355; first compound 0.253 µM) was 0.9 and the relative viability (NCI-H1355; first compound 0.8 µM) was 1. The relative viability (NCI-H1355; first compound 2.53 µM) was 0.992, the relative viability (NCI-H1666; first compound 0.08 µM) was 0.981 and the relative viability (NCI-H1666; first compound 0.253 µM) was 0.822. The relative viability (NCI-H1666; first compound 0.8 µM) was 1.26, the relative viability (NCI-H1666; first compound 2.53 µM) was 1.19 and the relative viability (LU99A; first compound 0.08 µM) was 0.621. For the same molecule, the relative viability (LU99A; first compound 0.253 µM) was 0.459, the relative viability (LU99A; first compound 0.8 µM) was 0.534 and the relative viability (LU99A; first compound 2.53 µM) was 0.592. For the same molecule, the relative viability (NCI-H838; first compound 0.08 µM) was 0.855, the relative viability (NCI-H838; first compound 0.253 µM) was 0.807 and the relative viability (NCI-H838; first compound 0.8 µM) was 0.951. It also gave a relative viability (NCI-H838; first compound 2.53 µM) of 1.01, a relative viability (UMC-11; first compound 0.08 µM) of 0.82 and a relative viability (UMC-11; first compound 0.253 µM) of 0.551. The relative viability (UMC-11; first compound 0.8 µM) was 0.598, the relative viability (UMC-11; first compound 2.53 µM) was 0.602 and the relative viability (NCI-H23; first compound 0.08 µM) was 0.676. The relative viability (NCI-H23; first compound 0.253 µM) was 0.496, the relative viability (NCI-H23; first compound 0.8 µM) was 0.638 and the relative viability (NCI-H23; first compound 2.53 µM) was 0.621. It also gave a relative viability (NCI-H2170; first compound 0.08 µM) of 1.25, a relative viability (NCI-H2170; first compound 0.253 µM) of 1.07 and a relative viability (NCI-H2170; first compound 0.8 µM) of 1.26. For the same molecule, the relative viability (NCI-H2170; first compound 2.53 µM) was 1.06, the relative viability (NCI-H727; first compound 0.08 µM) was 1.67 and the relative viability (NCI-H727; first compound 0.253 µM) was 0.771. It also gave a relative viability (NCI-H727; first compound 0.8 µM) of 0.797, a relative viability (NCI-H727; first compound 2.53 µM) of 0.676 and a relative viability (NCI-H1975; first compound 0.08 µM) of 0.968. It also gave a relative viability (NCI-H1975; first compound 0.253 µM) of 0.907, a relative viability (NCI-H1975; first compound 0.8 µM) of 0.906 and a relative viability (NCI-H1975; first compound 2.53 µM) of 0.569. The relative viability (BEN; first compound 0.08 µM) was 0.908, the relative viability (BEN; first compound 0.253 µM) was 0.787 and the relative viability (BEN; first compound 0.8 µM) was 0.846. For the same molecule, the relative viability (BEN; first compound 2.53 µM) was 0.876.
